Results on four compounds are retold here after patent publication US20250000875A1, “ALLOPREGNANOLONE ANALOGUES FOR HIV VIREMIA AND NEUROTOXICITY PROTECTION” (priority 2021, published 2025).

Data set [1] deals with HIV-1BaL. Put plainly: anti-viremic capacity: HIV-1BaL replication in primary human microglia, p24 accumulation. The data set is classed as cell-based. The note with it: for HIV-1BaL replication, accumulation of p24 HIV capsid protein: HIV-1BaL 1 ng/mL p24, over 10 days; for effect on efficacy of cART when co-administered: co-administered with cART. How it is done:
[…] Corp.) as described previously.
Assessment for viremia: Media, compounds 1-6, or 3α,5α-THP was assessed in a dose-response curve (0.1, 0.3, 1, 3.2, 10, 32, 100, 320, 1×10^3, 10×10^3, 100×10^3 nM) for their anti-viremic capacity (FIG. 9). To monitor infection, samples are taken every 72 h to measure p24 or proviral DNA129-130. Infection was confirmed post-hoc via immunocytochemical imaging of HIV-1 negative regulatory factor (Nef). As needed, TZM-bl and Jurkat reporter cells were also used to determine viral proliferation.
Interactions with cART: Efficacious concentrations were re-assessed in separate mock- or HIV-1BaL-infected cultures in the presence or absence of Triumeq® [Abacavir (ABC; 10 μM)/dolutegravir (DTG; 1 nM)/lamivudine (3TC; 30 μM) dosing derived from FDA-approved insert] to assess interactions with viremic control, cytotoxicity, and cytokine production.

The conditions of data set [2]: women following three consecutive SC injections; cited from earlier work.
For data set [3] the following is noted: rabbits or mice, cited from earlier work.
The test system of data set [4] is mouse primary medium spiny neurons in mixed glial co-culture. Put plainly: Tat and/or gp120 neurotoxicity (necrosis, propidium iodide) in neuron/mixed glia co-culture. The note with it: for baseline cell death: highest concentrations; for Tat and/or gp120-mediated necrosis / neurotoxicity: pretreatment, 0.001-10×10^3 nM, HIV-1 Tat and/or gp120 for 20 h. The class given is cell-based. As for the experimental part: The trans-diol analogue of 3α, 5α-THP, 5α-pregnan-2β,3α-diol-20-one (compound 1) was synthesized. Mixed glia (derived from 0-1 day old mouse pups) and primary medium spiny neurons (from the striatum of E17 pups) were co-cultured as previously described. Co-cultures were pretreated with a concentration-response curve (0.001-10×10^3 nM) of 3α,5α-THP or the analogue, 1, and exposed to HIV-1 Tat and/or gp120 for 20 h. Prior time-lapse experiments have identified this time-point as the earliest time at which 3α,5α-THP protection is evident. Each treatment group consisted of 3 independent observations (with 2 technical replicates each). Necrotic cells were identified via propidium iodide labeling.

Data set [5] deals with primary, mouse splenocytes. Put plainly: mitogen-stimulated proliferation of splenocytes. The note with it: high concentrations. The class given is cell-based.
For data set [6], the target named is HIV-1 trans-activation response element. The note with it: read-out: affinity; cited from earlier work.

For the compound `CC(=O)[C@H]1CC[C@H]2[C@@H]3CC[C@H]4C[C@H](O)CC[C@]4(C)[C@H]3CC[C@]12C` [3α,5α-THP, 5α-pregnan-3α-ol-20-one], in data set [1], the “HIV-1BaL replication, accumulation of p24 HIV capsid protein” value is reported as “attenuates” and the “effect on efficacy of cART when co-administered” value is “Neither AlloP nor 1 impairs the efficacy of cART”. Besides, the plasma clearance in data set [2] was around 4 h. Moreover, the “elimination half-life (t1/2z)” value in data set [3] (administered subcutaneously) was 0.2 to 0.667 h. Also, the “elimination half-life (t1/2z) in brain” value in data set [3] (infused IV) is recorded as around 4 h. In data set [4] (at 10 nM), the “increase in cell death” value came to 5.7%. Further, in data set [4], the baseline cell death entry is reported as “increased baseline cell death modestly” and the “Tat and/or gp120-mediated necrosis / neurotoxicity” value is reported as “significantly attenuated necrosis at every dose assessed”.

Consider `CC(=O)[C@H]1CC[C@H]2[C@@H]3CC[C@H]4C[C@H](O)[C@@H](O)C[C@]4(C)[C@H]3CC[C@]12C` [compound 1, 2β,3α-dihydroxy-5α-pregnan-20-one], for which, in data set [1], the “HIV-1BaL replication, accumulation of p24 HIV capsid protein” value is reported as “attenuates” and the “effect on efficacy of cART when co-administered” value was “Neither AlloP nor 1 impairs the efficacy of cART”. In data set [4], the “potency in ameliorating Tat-neurotoxicity relative to 3α,5α-THP” value was “equipotent to 3α,5α-THP” and the baseline cell death entry is recorded as “increased baseline cell death modestly”. For the same compound, the “increase in cell death” value in data set [4] (at 1 nM) is recorded as 8.8%. Besides, the “increase in cell death” value in data set [4] (at 10 nM) turned out to be 10.5%. In addition, the “Tat and/or gp120-mediated necrosis / neurotoxicity” value in data set [4] (listed as analogue 1) is on record as “significantly attenuated necrosis at every dose assessed”.

Take `C[C@]12C[C@H](O)[C@H]3[C@@H](CCC4=CC(=O)CC[C@@]43C)[C@@H]1CC[C@@H]2C(=O)CO` [corticosterone]: the mitogen-stimulated proliferation entry in data set [5] is recorded as “reduce mitogen-stimulated proliferation”.

As for `CN(C)[C@H]1C[C@@]23CC[C@@]4(O2)C(=CC[C@]2(C)C(c5ccc6ccncc6c5)=CC[C@H]24)C=C3[C@@H](O)[C@@H]1O` [dCA, didehydro-cortistatin A], the Kd in data set [6] was 1 to 2 nM.
